The values that follow come from ChEMBL document CHEMBL5385904, “Design, synthesis and biological evaluation of seco-DSP/DCK derivatives reversing P-glycoprotein-mediated paclitaxel resistance in A2780/T cells” (Eur J Med Chem, 2023).

pIC50: −log10 of the molar value.

The test system of test [1] is A2780/Taxol. The test can be described thus: Cytotoxicity against human A2780/Taxol cells assessed survival rate at 10 uM incubated for 48 hrs by MTT assay. Type of test: functional.
The test system of test [2] is A2780/Taxol. As to the kind of experiment: Reversal of multi-drug resistance in human A2780/Taxol cells incubated for 48 hrs by MTT assay. The format is functional, cell-based. In general terms: Tetrazolium assays rely on reduction of a dye to a coloured formazan, in cell work by metabolically active cells.
The subject of test [3] is A2780/Taxol. The test can be described thus: Reversal of multidrug resistance in human A2780/Taxol Cells assessed as reversal fold of paclitaxel IC50 at 10 uM incubated for 48 hrs by MTT assay. The format is functional.

As for `COc1ccc(/C=C/C(=O)OCc2c(OC(C)C)ccc3c(C)c(Cc4ccc(OC)cc4)c(=O)oc23)cc1`, in test [1], the Cell survival rate is 83%. Besides, the pIC50 in test [2] is 6.31. Also, the “fold change (FC)” value in test [3] came to 9.

`Cc1c(Cc2ccccc2)c(=O)oc2c(COC(=O)Cc3ccc(F)cc3)c(OC(C)C)ccc12` showed a Cell survival rate in test [1] of 95%. In test [2], the negative logarithm of the IC50 (pIC50) was 7.17. For the same molecule, the “fold change (FC)” value in test [3] was 66.

The molecule `COc1cc(CC(=O)OCc2c(OC(C)C)ccc3c(C)c(Cc4ccc(C(F)(F)F)cc4)c(=O)oc23)cc(OC)c1OC` returned a Cell survival rate in test [1] of 81%. The pIC50 in test [2] is 7.03. Further, the “fold change (FC)” value in test [3] is on record as 47.

Regarding `COc1cc(CC(=O)OCc2c(OC(C)C)ccc3c(C)c(CCc4ccccc4)c(=O)oc23)cc(OC)c1OC`, the Cell survival rate in test [1] is 93%. Further, in test [2], the negative-log IC50 (pIC50) was 7.06. The “fold change (FC)” value in test [3] worked out at 50.

Molecule `Cc1c(Cc2ccccc2)c(=O)oc2c(COC(=O)Cc3ccccc3)c(OC(C)C)ccc12` yielded a Cell survival rate in test [1] of 83%. Further, the pIC50 in test [2] is 7.12. The “fold change (FC)” value in test [3] stood at 58.

Molecule `CCc1cc(=O)c2ccc(OC(C)C)c(CNC(=O)Cc3cc(OC)c(OC)c(OC)c3)c2o1` gave a Cell survival rate in test [1] of 97%. Moreover, in test [2], the pIC50 is 7.70. In addition, in test [3], the “fold change (FC)” value is 224.

For `COc1cc(CC(=O)OCc2c(OC(C)C)ccc3c(C)cc(=O)oc23)cc(OC)c1OC`, in test [1], the Cell survival rate came out at 94%. Also, the pIC50 in test [2] is 6.97. For the same molecule, the “fold change (FC)” value in test [3] was found to be 41.

Molecule `Cc1c(Cc2ccc(F)cc2)c(=O)oc2c(COC(=O)/C=C/c3ccccc3)c(OC(C)C)ccc12` returned a Cell survival rate in test [1] of 90%. Besides, the negative logarithm of the IC50 (pIC50) in test [2] was 6.53. Also, the “fold change (FC)” value in test [3] stood at 15.

In test [1], `COc1cc(C(=O)OCc2c(OC(C)C)ccc3c(C)c(CCc4ccccc4)c(=O)oc23)cc(OC)c1OC` returned a Cell survival rate of 91%. For the same molecule, in test [2], the pIC50 is 7.51. Besides, in test [3], the “fold change (FC)” value is on record as 140.

`CCc1cc(=O)c2ccc(OC(C)C)c(CNc3cc(OC)c(OC)c(OC)c3)c2o1` registered a Cell survival rate in test [1] of 86%. For the same molecule, in test [2], the pIC50 is 6.84. In addition, the “fold change (FC)” value in test [3] came out at 31.

In test [1], `COc1cc(NC(=O)c2c(OC(C)C)ccc3c(C)cc(=O)oc23)cc(OC)c1OC` showed a Cell survival rate of 88%. In test [2], the pIC50 is 5.80. In addition, in test [3], the “fold change (FC)” value came to 2.8.

Consider `COc1ccc(/C=C/C(=O)OCc2c(OC(C)C)ccc3c(C)c(Cc4ccccc4)c(=O)oc23)cc1`, for which the Cell survival rate in test [1] was 86%. For the same molecule, the pIC50 in test [2] was 6.63. Further, the “fold change (FC)” value in test [3] was 19.

As for `CCOc1ccc2c(C)c(Cc3ccc(F)cc3)c(=O)oc2c1COC(=O)/C=C/c1ccc(OC)cc1`, the Cell survival rate in test [1] is on record as 92%. The pIC50 in test [2] is 6.47. Moreover, the “fold change (FC)” value in test [3] is reported as 13.

As for `COc1ccc(/C=C/C(=O)OCc2c(OC(C)C)ccc3c(C)c(Cc4ccc(C(F)(F)F)cc4)c(=O)oc23)cc1`, the Cell survival rate in test [1] was determined as 94%. The negative-log IC50 (pIC50) in test [2] was 6.20. In addition, in test [3], the “fold change (FC)” value stood at 7.

With `COc1cc(CC(=O)OCc2c(OC(C)C)ccc3c(C)c(Cc4ccc(C#N)cc4)c(=O)oc23)cc(OC)c1OC`, in test [1], the Cell survival rate was 81%. In addition, the pIC50 in test [2] is 7.06. Moreover, the “fold change (FC)” value in test [3] was 50.

In test [1], `COc1ccc(Cc2c(C)c3ccc(OC(C)C)c(COC(=O)/C=C/c4ccccc4)c3oc2=O)cc1` showed a Cell survival rate of 94%. Also, the pIC50 in test [2] is 5.47. Further, in test [3], the “fold change (FC)” value was found to be 1.3.

With `CC(=O)O[C@H]1C(=O)[C@@]2(C)[C@H]([C@H](OC(=O)c3ccccc3)[C@]3(O)C[C@H](OC(=O)[C@H](O)[C@@H](NC(=O)c4ccccc4)c4ccccc4)C(C)=C1C3(C)C)[C@]1(OC(C)=O)CO[C@@H]1C[C@@H]2O` [PACLITAXEL], the pIC50 in test [2] was 5.35. Also, the “fold change (FC)” value in test [3] was 1.

For `CCOc1ccc2c(=O)cc(CC)oc2c1COC(=O)/C=C/c1ccc(OC)cc1`, the Cell survival rate in test [1] came to 52%.

As a reminder, the pIC50 is the negative decadic logarithm of the IC50, by convention in mol/L.
